From US10899733B2, “Inhibitors of PARPs that catalyze mono-ADP-ribosylation” (OREGON HEALTH & SCIENCE UNIVERSITY, priority 2017, dated 2021)
Where two headings read alike, the source gives them in different places.

Columns and labels:
Assay type in all cases: biochemical
PARP10cat [1] = target: T1, PARP10cat (Homo sapiens, UniProt Q53GL7); assay: Inhibition of PARP10cat-mediated ADP-ribosylation of SRPK2 using NAD+ (100 μM)
T1 sequence (Q53GL7 806-1025 limits assumed): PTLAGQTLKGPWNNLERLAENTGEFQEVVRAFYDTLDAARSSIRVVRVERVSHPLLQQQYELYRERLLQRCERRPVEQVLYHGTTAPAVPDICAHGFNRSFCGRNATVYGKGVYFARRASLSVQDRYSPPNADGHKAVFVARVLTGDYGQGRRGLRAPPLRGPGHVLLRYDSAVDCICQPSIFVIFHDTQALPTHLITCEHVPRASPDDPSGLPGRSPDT

PARP10cat [2] = target: T1, PARP10cat; assay: PARP panel: ADP-ribosylation of SRPK2 using 6-a-NAD+
Excerpt: (§1) We screened 22 against poly-ADPr PARPs (PARPs 1, 2, and PARP5b) and mono-ADPr PARPs (PARPs 3, 4, 10, 11, 14, and 15) in an assay that measures ADP-ribosylation of SRPK2 using an N^6-alkyne tagged NAD^+ (6-a-NAD^+), a clickable NAD^+ analogue.{Jiang et al., 2010, J. Am. Chem. Soc. […] The observed selectivity is most likely due to the differences in the last position of the H-Y-E catalytic triad of these enzymes versus the H-Y-I triad found in PARP10. {Hottiger et al., 2010, Trends Biochem. Sci. 35, pp. 208-219} The glutamate (E988 in PARP1) in PARPs 1-4 and PARP 5b most likely clash with the pyridiny-4-yl group at the 6-position of 22, while PARP10 contains an isoleucine (1978) at this position that can accommodate this group (FIG. 1B).

PARP15cat = target: T2, PARP15cat (Homo sapiens, UniProt Q460N3); assay: as above
T2 construct: PARP15cat
T2 sequence (Q460N3 482-678 limits assumed): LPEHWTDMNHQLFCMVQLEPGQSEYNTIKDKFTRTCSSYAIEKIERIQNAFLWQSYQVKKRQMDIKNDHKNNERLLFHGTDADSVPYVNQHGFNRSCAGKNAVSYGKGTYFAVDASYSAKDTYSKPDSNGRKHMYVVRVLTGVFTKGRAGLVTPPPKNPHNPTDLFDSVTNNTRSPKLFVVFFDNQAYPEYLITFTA
Excerpt: as §1

PARP2 = PARP2 (Homo sapiens, UniProt Q9UGN5); assay: as above
Excerpt: as §1

PARP3 = target: T3, PARP3 (Homo sapiens, UniProt Q9Y6F1); assay: as above
T3 sequence (Q9Y6F1 1-533): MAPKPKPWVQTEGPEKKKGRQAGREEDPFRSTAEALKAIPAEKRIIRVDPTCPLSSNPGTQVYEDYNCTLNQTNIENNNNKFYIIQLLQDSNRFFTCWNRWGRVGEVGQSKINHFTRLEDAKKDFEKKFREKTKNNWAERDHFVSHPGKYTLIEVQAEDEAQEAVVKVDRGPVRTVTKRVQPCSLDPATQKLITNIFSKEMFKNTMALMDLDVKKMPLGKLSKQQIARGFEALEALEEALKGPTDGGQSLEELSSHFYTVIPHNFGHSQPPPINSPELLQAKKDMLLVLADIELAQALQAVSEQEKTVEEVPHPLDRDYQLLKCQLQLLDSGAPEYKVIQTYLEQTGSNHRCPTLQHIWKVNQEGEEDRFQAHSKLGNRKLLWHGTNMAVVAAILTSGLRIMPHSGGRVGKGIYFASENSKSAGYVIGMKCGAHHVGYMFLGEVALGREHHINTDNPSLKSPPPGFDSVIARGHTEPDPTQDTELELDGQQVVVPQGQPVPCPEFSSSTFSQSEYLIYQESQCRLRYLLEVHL
Excerpt: as §1

PARP5bcat = target: T4, PARP5bcat (Homo sapiens, UniProt Q9H2K2); assay: as above
T4 construct: PARP5bcat
Excerpt: as §1

PARP8 = target: T5, PARP8 (Homo sapiens, UniProt Q8N3A8); assay: as above
T5 sequence (Q8N3A8 1-854): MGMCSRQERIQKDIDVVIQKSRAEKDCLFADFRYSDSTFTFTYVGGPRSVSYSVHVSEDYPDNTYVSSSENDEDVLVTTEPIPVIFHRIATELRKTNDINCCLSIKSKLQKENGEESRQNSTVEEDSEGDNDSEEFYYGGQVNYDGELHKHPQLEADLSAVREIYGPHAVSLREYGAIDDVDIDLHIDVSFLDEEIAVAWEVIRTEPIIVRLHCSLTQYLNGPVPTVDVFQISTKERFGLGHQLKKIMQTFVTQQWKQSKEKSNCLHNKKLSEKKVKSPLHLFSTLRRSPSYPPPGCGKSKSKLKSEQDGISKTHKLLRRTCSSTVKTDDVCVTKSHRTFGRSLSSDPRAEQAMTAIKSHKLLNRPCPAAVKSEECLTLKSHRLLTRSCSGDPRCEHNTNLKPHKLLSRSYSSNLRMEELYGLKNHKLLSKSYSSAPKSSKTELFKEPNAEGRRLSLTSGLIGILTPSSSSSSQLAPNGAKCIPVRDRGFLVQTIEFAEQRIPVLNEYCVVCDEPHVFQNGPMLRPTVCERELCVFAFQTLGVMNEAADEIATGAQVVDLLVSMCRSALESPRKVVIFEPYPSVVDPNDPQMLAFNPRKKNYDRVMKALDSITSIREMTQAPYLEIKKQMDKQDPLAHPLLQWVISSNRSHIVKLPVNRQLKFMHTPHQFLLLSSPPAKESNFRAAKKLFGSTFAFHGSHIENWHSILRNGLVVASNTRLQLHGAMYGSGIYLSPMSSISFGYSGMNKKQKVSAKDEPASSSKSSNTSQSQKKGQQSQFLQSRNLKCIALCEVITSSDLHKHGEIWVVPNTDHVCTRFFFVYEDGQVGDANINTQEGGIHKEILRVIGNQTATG

T4 sequence (Q9H2K2 959-1164): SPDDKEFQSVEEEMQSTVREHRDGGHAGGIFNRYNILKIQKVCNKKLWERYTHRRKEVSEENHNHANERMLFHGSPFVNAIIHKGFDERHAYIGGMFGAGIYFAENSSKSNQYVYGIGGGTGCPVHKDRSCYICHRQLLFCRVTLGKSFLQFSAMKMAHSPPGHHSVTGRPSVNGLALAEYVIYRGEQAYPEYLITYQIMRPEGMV
PARP2, sequence (Q9UGN5 whole entry): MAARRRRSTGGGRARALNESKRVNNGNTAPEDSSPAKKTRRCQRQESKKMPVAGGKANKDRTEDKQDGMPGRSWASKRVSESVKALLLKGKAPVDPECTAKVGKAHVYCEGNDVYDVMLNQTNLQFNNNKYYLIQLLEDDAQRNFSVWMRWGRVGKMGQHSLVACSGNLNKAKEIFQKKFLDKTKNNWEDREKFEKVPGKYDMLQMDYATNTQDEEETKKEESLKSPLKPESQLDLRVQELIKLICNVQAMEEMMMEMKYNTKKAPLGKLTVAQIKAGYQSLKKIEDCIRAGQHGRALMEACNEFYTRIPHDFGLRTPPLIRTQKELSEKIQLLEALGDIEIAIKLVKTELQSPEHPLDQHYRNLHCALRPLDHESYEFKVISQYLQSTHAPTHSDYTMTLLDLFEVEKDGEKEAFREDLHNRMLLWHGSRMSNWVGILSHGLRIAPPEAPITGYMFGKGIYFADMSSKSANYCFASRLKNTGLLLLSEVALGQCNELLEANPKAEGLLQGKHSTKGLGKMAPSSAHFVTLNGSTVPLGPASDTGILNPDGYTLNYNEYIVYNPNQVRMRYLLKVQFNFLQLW

Cc1c(-c2ccnc(C(F)(F)F)c2)ccc2c1CCNC2=O [Compound 22, 5-methyl-6-(2-(trifluoromethyl)pyridin-4-yl)-3,4-dihydroisoquinolin-1(2H)-one]
selectivity for PARP10 over PARP11 (PARP10cat [1]): 29 fold
improvement in selectivity for PARP10 over PARP11 compared to parent compound (PARP10cat [1]; 12 vs 8, 14 vs 3, 20, 22 vs 16, 23, 24 vs 15): ~2 fold
PARP10cat pIC50 ± S.E.M. (PARP10cat [1]; ADP-ribosylation of SRPK2, NAD+ 100 μM): 5.74 ± 0.02
PARP11/PARP10 (PARP10cat [1]; ratio of IC50 values, PARP11 over PARP10cat): 29
selectivity for PARP10 over PARPs 1-4 and PARP 5b (PARP10cat [2]; 6-a-NAD+): greater than 37 fold
IC50 (PARP10cat [2]; 6-a-NAD+, read-out: PARP10cat IC50): 2.7 µM
IC50 (PARP10cat [2]; 6-a-NAD+, read-out: PARP10cat pIC50 ± S.E.M. (converted)): 2.75 µM
PARP/PARP10 (PARP10cat [2]; PARP10cat over PARP10cat): 1
IC50 (PARP15cat; 6-a-NAD+): 62.9 µM
PARP15cat pIC50 ± S.E.M. (PARP15cat; 6-a-NAD+): 4.20 ± 0.05
PARP/PARP10 (PARP15cat; PARP15cat over PARP10cat): 23
IC50 (PARP2; 6-a-NAD+): > 100 µM
PARP/PARP10 (PARP2; PARP2 over PARP10cat): >37
inhibition of PARP2 (PARP2; up to 100 μM): does not inhibit
IC50 (PARP3; 6-a-NAD+): > 100 µM
PARP/PARP10 (PARP3; PARP3 over PARP10cat): >>37
inhibition of PARP3 (PARP3; up to 100 μM): does not inhibit
IC50 (PARP5bcat; 6-a-NAD+): > 100 µM
PARP/PARP10 (PARP5bcat; PARP5bcat over PARP10cat): >>37
inhibition of PARP 5b (PARP5bcat; up to 100 μM): does not inhibit
IC50 (PARP8; 6-a-NAD+): > 30 µM
PARP/PARP10 (PARP8; PARP8 over PARP10cat): >10
